# Reference: patent publication US5679680A, “α-substituted hydrazides having calpain inhibitory activity” (Warner-Lambert Company, priority 1995, dated 1997)
# Assays:
# [1] = test system: Purkinje cells in cerebellar slices; assay: AMPA toxicity to Purkinje cells in cerebellar slices; assay type: cell-based, rat; conditions: 100 μM compound
# Protocol: (ii) Neuroprotective effects of the compound of Example 5 against AMPA toxicity to Purkinje cells in cerebellar Slices: Cerebellar slices were acutely isolated from adult rats and maintained in an oxygenated bath for the duration of the experiment as described elsewhere (Caner, et al., Brain Research 1993;607: 354-356). Example 5 (100 μM) was added to the ACSF (124 mM NaCl, 3.3 mM KCl, 2 mM CaCl2, 25.7 mM NaHCO3, 2.4 mM MgSO4, 1.25 mM KH2 PO4, 10 mM glucose) 60 minutes before the addition of amino-3-hydroxy-5-methyl-4-isoxazole propionic acid (AMPA; 30 μM for 30 minutes). The slices were then allowed to recover in normal ACSF for an additional 90 minutes. Histological damage to Purkinje cells was identified and quantified as described in detail elsewhere (Caner, et al., Brain Research 1993;607: 354-356).
# [2] = target: T1, Calmodulin-calcineurin (Bos taurus, UniProt P48452); assay: Calmodulin-calcineurin assay (p-nitrophenyl phosphate); assay type: biochemical, bovine; conditions: pH 7.4, 25° C., 60 minutes or more
# T1 construct: purchased Sigma; host or cells: bovine brain
# Protocol: (§1) Selectivity of α-substituted Hydrazides: Calpain I and II were assayed as described in Example 1. One to 2 ng papain (papaya latex, Sigma, P3125), 1.25 μg trypsin (bovine pancreas, Sigma, T8003), 5 μg thermolysin (Bacillus thermoproteolyticus, Sigma, P1512) were assayed using 0.5 mg/mL casein as substrate in the microplate format (250 μL reaction volume), essentially a described by Buroker-Kilgore, M. and Wang K K W, Anal Biochem 1993;208: 387-392. Cathepsin B (0.002 unit, bovine spleen) was assayed with 50 mM MES (pH 5.5), 100 μM carbobenzoxy-Arg-Arg-4-methoxy-beta-naphthlamide (Cbz-Arg-Arg-MNA), inhibitor, and 2 mM DTT in 200 μL for 60 minutes at room temperature. Fifty-microliter aliquots were transferred to a fluorescence-compatible plate and then read with a Perkin-Elmer fluorometer LS-50B (excitation 340 nm and emission 425 nm). Calcineurin (bovine brain, Sigma) (5 μg, 0.8 unit) was assayed with 10 mM p-nitrophenyl phosphate in 1 mM DTT, 1 mM CaCl2, 1 mM MnCl2, […] calmodulin (CaM, if added), and 50 mM Tris-HCl (pH 7.4) at 25° C. for 60 minutes or more. Production of p-nitrophenol was monitored at 405 nm. Inhibition of these proteases are presented as IC50.
# [3] = target: T2, Trypsin (Bos taurus, UniProt P00760); assay: Trypsin assay, casein substrate; assay type: biochemical, bovine; conditions: 0.5 mg/mL casein
# T2 construct: purchased Sigma T8003; host or cells: bovine pancreas
# T2 sequence (P00760 24-246): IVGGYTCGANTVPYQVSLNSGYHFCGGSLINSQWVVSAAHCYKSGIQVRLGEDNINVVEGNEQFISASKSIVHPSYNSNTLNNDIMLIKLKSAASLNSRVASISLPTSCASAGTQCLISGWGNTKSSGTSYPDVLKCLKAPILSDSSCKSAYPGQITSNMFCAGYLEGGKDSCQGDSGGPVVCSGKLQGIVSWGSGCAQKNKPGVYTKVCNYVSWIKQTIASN
# Protocol: as §1
# [4] = target: T3, Cathepsin B (Bos taurus, UniProt P07688); assay: Cathepsin B assay (Cbz-Arg-Arg-MNA substrate); assay type: biochemical, bovine; conditions: pH 5.5, 60 minutes, room temperature
# T3 construct: Cathepsin B (0.002 unit, bovine spleen); from tissue; host or cells: bovine spleen
# Protocol: as §1
# [5] = target: T4, Human Calpain I (Homo sapiens, UniProt P07384); assay: Calpain I activity, casein substrate, Coomassie microplate assay; assay type: biochemical
# T4 construct: Calpain I was purified from human erythrocytes; from tissue; host or cells: human erythrocytes
# T4 sequence (P07384 1-714): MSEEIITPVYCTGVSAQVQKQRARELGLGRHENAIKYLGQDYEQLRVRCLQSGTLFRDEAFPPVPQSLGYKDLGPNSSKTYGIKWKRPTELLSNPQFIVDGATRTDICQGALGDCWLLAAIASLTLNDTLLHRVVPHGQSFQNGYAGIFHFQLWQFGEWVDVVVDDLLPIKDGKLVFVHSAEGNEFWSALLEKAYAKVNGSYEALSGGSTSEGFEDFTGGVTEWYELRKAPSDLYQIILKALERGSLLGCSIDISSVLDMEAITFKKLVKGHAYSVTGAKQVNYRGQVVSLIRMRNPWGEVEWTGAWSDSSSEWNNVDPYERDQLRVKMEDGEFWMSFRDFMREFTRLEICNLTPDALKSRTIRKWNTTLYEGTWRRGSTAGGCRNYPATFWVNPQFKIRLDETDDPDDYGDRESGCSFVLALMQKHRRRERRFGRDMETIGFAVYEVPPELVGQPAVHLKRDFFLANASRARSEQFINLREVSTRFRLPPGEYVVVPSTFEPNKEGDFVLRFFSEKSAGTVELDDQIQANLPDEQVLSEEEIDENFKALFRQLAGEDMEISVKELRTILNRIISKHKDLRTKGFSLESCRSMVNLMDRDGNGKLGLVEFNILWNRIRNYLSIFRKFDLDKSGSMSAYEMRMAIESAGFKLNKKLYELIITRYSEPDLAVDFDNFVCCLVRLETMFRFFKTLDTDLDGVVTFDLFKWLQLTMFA
# T4 sequence (P04632 1-268 partner): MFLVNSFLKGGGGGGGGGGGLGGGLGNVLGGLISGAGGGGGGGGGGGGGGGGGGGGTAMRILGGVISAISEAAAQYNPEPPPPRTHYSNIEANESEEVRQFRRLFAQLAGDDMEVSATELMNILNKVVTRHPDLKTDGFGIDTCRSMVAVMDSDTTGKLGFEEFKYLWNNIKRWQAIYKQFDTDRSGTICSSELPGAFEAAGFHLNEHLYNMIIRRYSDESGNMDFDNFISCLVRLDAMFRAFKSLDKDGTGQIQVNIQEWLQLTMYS
# Protocol: Assay of calpain activity: Calpain I was purified from human erythrocytes as described by Wang K K W, Roufogalis B D, and Villalobo A, Arch Biochem Biophys 1988;267: 317-327. Calpain activity was assayed in a 96-well microplate format (Buroker-Kilgore M and Wang K K W, Anal Bio Chem 1993;208: 387-392). In 250 μL of reaction mixture, substrate casein (0.5 mg/mL) was incubated with 0.01 unit (80-120 ng) calpain I, 20 mM dithiothreitol (DTT), 50 mM Tris-HCl (pH 7.4 at 25° C.) and 4 mM CaCl2 at 25° C. for 60 minutes. Two 100-μL aliquots were taken for Coomassie blue G250 binding analysis to quantify the remaining casein.
# Compound concentrations that cause 50% inhibition (IC50) are as shown (Table I). The second rate of inactivation of calpain I for 2 compounds are also shown.
# as §1
# [6] = target: T5, Thermolysin (Bacillus thermoproteolyticus, UniProt P00800); assay: Thermolysin assay, casein substrate; assay type: biochemical
# T5 construct: purchased Sigma P1512; host or cells: Bacillus thermoproteolyticus
# T5 sequence (P00800 233-548): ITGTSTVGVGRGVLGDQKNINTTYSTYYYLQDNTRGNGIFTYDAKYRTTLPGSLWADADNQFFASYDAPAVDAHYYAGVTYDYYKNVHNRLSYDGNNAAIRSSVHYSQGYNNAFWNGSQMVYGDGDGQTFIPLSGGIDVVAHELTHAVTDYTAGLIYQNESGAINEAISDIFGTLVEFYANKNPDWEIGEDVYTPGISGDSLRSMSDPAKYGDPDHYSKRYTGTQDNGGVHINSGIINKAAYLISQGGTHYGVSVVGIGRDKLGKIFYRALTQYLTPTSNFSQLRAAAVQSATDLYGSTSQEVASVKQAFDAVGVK
# Protocol: as §1
structure (smiles),measurement,setting,value
"O=C(CCl)NN=c1[nH]c2ccccc2n(-c2ccccc2)c1=O [Example 5, 2-Chloro-acetic acid (3-oxo-4-phenyl-3,4-dihydro-1H-quinoxalin-2-ylidene)-hydrazide]",AMPA-induced neurotoxicity,[1]; AMPA 30 μM,can be ameliorated
same,viability at 100 µM,"[1]; Rattus norvegicus, purkinje, 0.5 h, AMPA 30 μM for 30 minutes, mean ± SEM (10), p < 0.005 vs AMPA alone (13.41 ± 2.34), Control 94.41 ± 0.97, read-out: % Live Purkinje Neurons",51 ± 4.8%
same,IC50,[2],> 500 µM
same,IC50,[3],> 200 µM
same,IC50,[4],> 200 µM
same,Ki/[I] Calpain I (second rate of inactivation),[5],109 M⁻¹ s⁻¹
same,IC50,"[5]; casein 0.5 mg/mL, pH 7.4, 25° C., 60 minutes (Table I)",0.364 µM
same,IC50,[6],> 500 µM
